Source: patent US7880007B2, “Bicyclic substituted phenyl piperidine modulators of muscarinic receptors” (Vertex Pharmaceuticals Incorporated, priority 2004, dated 2011)

Legend:
Type in all cases: cell-based
[1] = target: T1, M2 muscarinic receptor (Homo sapiens, UniProt P08172); test: Functional mobilization of intracellular calcium (FLIPR), M2-CHO cells; settings: for Emax: 100% efficacy = maximum response obtained with the Carbachol control; for M2 Activity: M2-CHO cells, calcium mobilization (FLIPR)
T1 construct: expressed in transfected cells; host or cells: CHO (M2-CHO)
T1 sequence (P08172 1-466): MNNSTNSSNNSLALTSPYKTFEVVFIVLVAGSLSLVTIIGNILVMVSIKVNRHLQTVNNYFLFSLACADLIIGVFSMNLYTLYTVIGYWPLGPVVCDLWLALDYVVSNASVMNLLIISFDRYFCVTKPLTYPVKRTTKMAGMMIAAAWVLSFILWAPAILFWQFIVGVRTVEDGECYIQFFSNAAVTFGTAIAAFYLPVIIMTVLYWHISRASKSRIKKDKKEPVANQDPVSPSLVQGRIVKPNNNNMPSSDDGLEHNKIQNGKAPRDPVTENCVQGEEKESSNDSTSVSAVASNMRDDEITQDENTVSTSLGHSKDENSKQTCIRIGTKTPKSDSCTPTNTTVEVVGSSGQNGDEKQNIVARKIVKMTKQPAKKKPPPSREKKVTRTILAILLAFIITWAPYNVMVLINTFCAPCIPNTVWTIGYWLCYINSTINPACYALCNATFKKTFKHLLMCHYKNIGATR
How it was run: (§1)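 FLIPR fluorescence (ex 488, em 540 nm) recorded 60 sec after compound addition to dye-loaded CHO cells. Agonist mode: compound alone. Antagonist mode: 15 min compound pre-incubation, then carbachol at EC80, or co-application. Efficacy expressed as % of maximal carbachol response.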

[2] = target: T2, M1 muscarinic receptor (Homo sapiens, UniProt P11229); test: Functional mobilization of intracellular calcium (FLIPR), M1-CHO cells; settings: for Emax: 100% efficacy = maximum response obtained with the Carbachol control; for M1 Activity: M1-CHO cells, calcium mobilization (FLIPR)
T2 construct: expressed in transfected cells; host or cells: CHO (M1-CHO)
T2 sequence (P11229 1-460): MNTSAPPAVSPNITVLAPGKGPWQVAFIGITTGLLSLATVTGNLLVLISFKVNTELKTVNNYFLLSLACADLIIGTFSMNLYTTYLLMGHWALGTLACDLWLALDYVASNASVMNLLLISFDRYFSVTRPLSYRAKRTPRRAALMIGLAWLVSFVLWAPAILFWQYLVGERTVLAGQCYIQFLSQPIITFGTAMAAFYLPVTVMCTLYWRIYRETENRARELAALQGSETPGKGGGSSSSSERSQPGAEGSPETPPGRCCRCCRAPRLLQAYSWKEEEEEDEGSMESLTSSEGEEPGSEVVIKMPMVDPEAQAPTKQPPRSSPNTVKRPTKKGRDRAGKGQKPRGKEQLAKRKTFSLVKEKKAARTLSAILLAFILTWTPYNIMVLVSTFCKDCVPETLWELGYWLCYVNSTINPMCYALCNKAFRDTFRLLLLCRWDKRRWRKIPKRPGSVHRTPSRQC
How it was run: as §1

[3] = target: T3, M4 muscarinic receptor (Homo sapiens, UniProt P08173); test: Functional mobilization of intracellular calcium (FLIPR), M4-CHO cells; settings: for Emax: 100% efficacy = maximum response obtained with the Carbachol control; for M4 Activity: M4-CHO cells, calcium mobilization (FLIPR)
T3 construct: expressed in transfected cells; host or cells: CHO (M4-CHO)
T3 sequence (P08173 1-479): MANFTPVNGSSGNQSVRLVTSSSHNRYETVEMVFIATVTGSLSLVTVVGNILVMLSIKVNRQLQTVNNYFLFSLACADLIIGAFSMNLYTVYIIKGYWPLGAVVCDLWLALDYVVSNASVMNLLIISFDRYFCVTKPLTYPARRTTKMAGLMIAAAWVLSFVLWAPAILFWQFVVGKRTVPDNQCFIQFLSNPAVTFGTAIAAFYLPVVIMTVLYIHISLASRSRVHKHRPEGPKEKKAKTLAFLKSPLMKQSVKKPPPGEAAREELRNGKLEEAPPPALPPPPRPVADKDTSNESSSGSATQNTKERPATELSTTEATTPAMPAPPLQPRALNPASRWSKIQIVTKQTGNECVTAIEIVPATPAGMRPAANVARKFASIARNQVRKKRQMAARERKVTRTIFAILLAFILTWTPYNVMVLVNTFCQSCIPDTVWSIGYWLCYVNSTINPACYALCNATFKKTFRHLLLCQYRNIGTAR
How it was run: as §1

[4] = target: T4, M3 muscarinic receptor (Homo sapiens, UniProt P20309); test: Functional mobilization of intracellular calcium (FLIPR), M3-CHO cells; settings: for Emax: 100% efficacy = maximum response obtained with the Carbachol control; for M3 Activity: M3-CHO cells, calcium mobilization (FLIPR)
T4 construct: expressed in transfected cells; host or cells: CHO (M3-CHO)
How it was run: as §1

T4 sequence (P20309 whole entry): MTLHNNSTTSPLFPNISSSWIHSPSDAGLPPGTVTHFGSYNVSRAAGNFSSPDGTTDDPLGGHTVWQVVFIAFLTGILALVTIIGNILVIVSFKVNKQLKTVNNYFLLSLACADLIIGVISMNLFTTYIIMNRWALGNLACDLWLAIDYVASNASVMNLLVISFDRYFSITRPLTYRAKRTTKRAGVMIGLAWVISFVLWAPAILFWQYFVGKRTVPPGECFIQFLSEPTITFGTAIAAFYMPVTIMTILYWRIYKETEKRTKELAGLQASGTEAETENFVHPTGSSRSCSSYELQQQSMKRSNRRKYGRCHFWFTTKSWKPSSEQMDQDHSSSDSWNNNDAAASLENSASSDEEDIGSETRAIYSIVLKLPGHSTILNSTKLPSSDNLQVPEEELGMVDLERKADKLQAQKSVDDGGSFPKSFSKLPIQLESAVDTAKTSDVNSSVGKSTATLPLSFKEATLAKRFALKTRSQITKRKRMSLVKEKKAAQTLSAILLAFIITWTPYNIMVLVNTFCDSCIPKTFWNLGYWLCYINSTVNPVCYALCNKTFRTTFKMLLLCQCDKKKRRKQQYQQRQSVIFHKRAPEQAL

Row | SMILES | Emax [1] | M2 Activity [1] | Emax [2] | M1 Activity [2] | Emax [3] | M4 Activity [3] | Emax [4] | M3 Activity [4]
1 | CC(C)Oc1ccccc1C1CCN([C@H]2C[C@H]3CC[C@H]2C3)CC1 [Compound 26] | < 25% | + (activity was measured to be greater than 5.0 μM) | 25 to 100% | ++ (activity was measured to be from 1.0 μM to 5.0 μM) | 25 to 100% | +++ (activity was measured to be less than 1.0 μM) | < 25% | + (activity was measured to be greater than 5.0 μM)
2 | COc1ccc(Cl)cc1C1CCN(C2CC3CCC(C3)C2)CC1 (stereo not drawn) [Compound 27] | 25 to 100% | ++ (activity was measured to be from 1.0 μM to 5.0 μM) | 25 to 100% | ++ (activity was measured to be from 1.0 μM to 5.0 μM) | 25 to 100% | +++ (activity was measured to be less than 1.0 μM) | < 25% | + (activity was measured to be greater than 5.0 μM)
3 | COc1ccccc1C1(O)CCN(CC2CC3C=CC2C3)CC1 (stereo not drawn) [Compound 29] | < 25% | + (activity was measured to be greater than 5.0 μM) | 25 to 100% | + (activity was measured to be greater than 5.0 μM) | 25 to 100% | ++ (activity was measured to be from 1.0 μM to 5.0 μM) | – | + (activity was measured to be greater than 5.0 μM)
4 | CCOC(=O)N1CCC(N2CCC(O)(c3cc(Cl)ccc3OC)CC2)CC1 [Compound 31] | < 25% | + (activity was measured to be greater than 5.0 μM) | 25 to 100% | ++ (activity was measured to be from 1.0 μM to 5.0 μM) | 25 to 100% | +++ (activity was measured to be less than 1.0 μM) | < 25% | + (activity was measured to be greater than 5.0 μM)
5 | FC(F)(F)c1ccccc1C1CCN(C2C[C@H]3CC[C@H]2C3)CC1 (stereo partly drawn) [Compound 32] | < 25% | – | 25 to 100% | – | 25 to 100% | – | < 25% | –
6 | CCOC(=O)N1C2CCC1CC(N1CCC(c3cc(-c4ccc(C(C)(C)C#N)cc4)ccc3OC)CC1)C2 (stereo not drawn) [Compound 33] | < 25% | + (activity was measured to be greater than 5.0 μM) | 25 to 100% | ++ (activity was measured to be from 1.0 μM to 5.0 μM) | 25 to 100% | ++ (activity was measured to be from 1.0 μM to 5.0 μM) | < 25% | + (activity was measured to be greater than 5.0 μM)
7 | COc1ccccc1C1CCN(C2CC(C)CC(C)C2)CC1 (stereo not drawn) [Compound 34] | < 25% | + (activity was measured to be greater than 5.0 μM) | < 25% | + (activity was measured to be greater than 5.0 μM) | < 25% | + (activity was measured to be greater than 5.0 μM) | < 25% | + (activity was measured to be greater than 5.0 μM)
8 | COc1cc(F)ccc1C1CCN([C@@H]2C[C@H]3CC[C@H]2C3)CC1 [Compound 35] | < 25% | + (activity was measured to be greater than 5.0 μM) | 25 to 100% | + (activity was measured to be greater than 5.0 μM) | 25 to 100% | +++ (activity was measured to be less than 1.0 μM) | < 25% | + (activity was measured to be greater than 5.0 μM)
9 | CNC(=O)c1ccc(-c2ccc(OC)c(C3CCN(C4CCCCC4)CC3)c2)cc1 [Compound 36] | < 25% | + (activity was measured to be greater than 5.0 μM) | < 25% | + (activity was measured to be greater than 5.0 μM) | 25 to 100% | ++ (activity was measured to be from 1.0 μM to 5.0 μM) | < 25% | + (activity was measured to be greater than 5.0 μM)
10 | COc1ccccc1C1CC2CCC(C1)N2C1CCOCC1 (stereo not drawn) [Compound 37] | < 25% | + (activity was measured to be greater than 5.0 μM) | < 25% | + (activity was measured to be greater than 5.0 μM) | < 25% | + (activity was measured to be greater than 5.0 μM) | < 25% | + (activity was measured to be greater than 5.0 μM)
11 | COc1ccccc1C1CCN(C2CCC[C@@H](C)C2)CC1 (stereo partly drawn) [Compound 38] | < 25% | + (activity was measured to be greater than 5.0 μM) | < 25% | + (activity was measured to be greater than 5.0 μM) | 25 to 100% | +++ (activity was measured to be less than 1.0 μM) | < 25% | + (activity was measured to be greater than 5.0 μM)
12 | CCOC(=O)N1CCC(CN2CCC(c3cc(F)ccc3OC)CC2)CC1 [Compound 39] | 25 to 100% | +++ (activity was measured to be less than 1.0 μM) | 25 to 100% | +++ (activity was measured to be less than 1.0 μM) | 25 to 100% | +++ (activity was measured to be less than 1.0 μM) | < 25% | + (activity was measured to be greater than 5.0 μM)
13 | COc1ccc(F)cc1C1(F)CCN(C2CC3CCC(C3)C2)CC1 (stereo not drawn) [Compound 40] | 25 to 100% | + (activity was measured to be greater than 5.0 μM) | 25 to 100% | ++ (activity was measured to be from 1.0 μM to 5.0 μM) | 25 to 100% | +++ (activity was measured to be less than 1.0 μM) | < 25% | + (activity was measured to be greater than 5.0 μM)
14 | OC1(c2ccc(F)cc2F)CCN(C2C[C@H]3CC[C@H]2C3)CC1 (stereo partly drawn) [Compound 41] | < 25% | + (activity was measured to be greater than 5.0 μM) | < 25% | + (activity was measured to be greater than 5.0 μM) | < 25% | + (activity was measured to be greater than 5.0 μM) | < 25% | + (activity was measured to be greater than 5.0 μM)
15 | CCOC(=O)C(C)(C)Oc1ccccc1C1CCN([C@H]2C[C@H]3CC[C@H]2C3)CC1 [Compound 42] | < 25% | + (activity was measured to be greater than 5.0 μM) | < 25% | + (activity was measured to be greater than 5.0 μM) | < 25% | ++ (activity was measured to be from 1.0 μM to 5.0 μM) | < 25% | + (activity was measured to be greater than 5.0 μM)
16 | CCOC(=O)N1CCC(N2CCC(c3cc(-c4ccc(S(C)(=O)=O)cc4)ccc3OC)CC2)CC1 [Compound 43] | 25 to 100% | +++ (activity was measured to be less than 1.0 μM) | > 100% | +++ (activity was measured to be less than 1.0 μM) | 25 to 100% | +++ (activity was measured to be less than 1.0 μM) | 25 to 100% | + (activity was measured to be greater than 5.0 μM)
